Reference: ChEMBL document CHEMBL3045775, “Methyl jasmonate-induced suppression of anthracnose rot in tomato fruit” (Crop Prot, 2007)
Calls of active or inactive are those of the source. The rule behind the calls is not given here.

Tests used:
[1] = test system: Colletotrichum coccodes; experiment: Antifungal activity against Colletotrichum coccodes infected tomato fruit assessed as decrease in fruit cracking at 100% v/v incubated for 7 days post-inoculation relative to control; format: functional, organism-based
[2] = test system: Colletotrichum coccodes; experiment: Antifungal activity against Colletotrichum coccodes infected tomato fruit assessed as suppression in lesion at 41.8 ul/l incubated for 20 min followed by compound wash out measured after 6 days relative to control; format: functional, organism-based
[3] = test system: Colletotrichum coccodes; experiment: Antifungal activity against Colletotrichum coccodes infected tomato fruit assessed as suppression in lesion at 41.8 ul/l inoculated on fruit pretreated with compound for 20 min measured after 9 days relative to control; format: functional
[4] = test system: Colletotrichum coccodes; experiment: Induction of Colletotrichum coccodes growth infected tomato fruit assessed as fruit cracking at 100% v/v incubated for 7 days post-inoculation relative to control; format: organism-based; settings: in vivo, 168 h
[5] = test system: Colletotrichum coccodes; experiment: Antifungal activity against Colletotrichum coccodes infected tomato fruit assessed as spore germination at 44.8 ul/l inoculated on fruit pre-treated with compound for 7 days followed by 7 days incubation measured 24 hr post spore-inoculation on medium (reference value: 88.8 +/- 5.19%); format: functional
[6] = test system: Colletotrichum coccodes; experiment: Antifungal activity against Colletotrichum coccodes infected tomato fruit assessed as lesion area at 44.8 ul/l incubated for 7 days post-inoculation (reference value: 1.64 +/- 0.62 cm2); format: functional
[7] = test system: Colletotrichum coccodes; experiment: Antifungal activity against Colletotrichum coccodes assessed as spore germination at 44.8 ul/l inoculated on medium pretreated with compound for 24 hr followed by compound wash-out measured after 24 hr (100%); format: functional
[8] = test system: Colletotrichum coccodes; experiment: Antifungal activity against Colletotrichum coccodes assessed as spore production at 44.8 ul/l inoculated on medium pretreated with compound for 7 days followed by compound wash-out measured after 9 days (7.7 +/- 4.15 10^5/ml); format: functional
[9] = test system: Colletotrichum coccodes; experiment: Antifungal activity against Colletotrichum coccodes assessed as colony area at 44.8 ul/l inoculated on medium pretreated with compound for 7 days followed by compound wash-out measured after 7 days (5.98 +/- 0.36 cm2); format: functional
[10] = test system: Colletotrichum coccodes; experiment: Antifungal activity against Colletotrichum coccodes assessed as spore germination at 44.8 ul/l incubated for 24 hr post-inoculation (reference value: 100%); format: functional
[11] = test system: Colletotrichum coccodes; experiment: Antifungal activity against Colletotrichum coccodes assessed as spore production at 44.8 ul/l incubated for 9 days post-inoculation (reference value: 7.1 +/- 2.44 10^5/ml); format: functional
[12] = test system: Colletotrichum coccodes; experiment: Antifungal activity against Colletotrichum coccodes assessed as colony area at 44.8 ul/l incubated for 7 days post-inoculation (reference value: 9.55 +/- 0.25 cm2); format: functional
[13] = test system: Colletotrichum coccodes; experiment: Antifungal activity against Colletotrichum coccodes infected tomato fruit assessed as spore production at 44.8 ul/l inoculated on fruit pre-treated with compound for 7 days measured after 9 days (reference value: 11.2 +/- 4.29 10^5/ml); format: functional
[14] = test system: Colletotrichum coccodes; experiment: Antifungal activity against Colletotrichum coccodes infected tomato fruit assessed as lesion area at 44.8 ul/l inoculated on fruit pretreated with compound for 7 days measured after 7 days (reference value: 4.33 +/- 0.6 cm2); format: functional
[15] = test system: Colletotrichum coccodes; experiment: Antifungal activity against Colletotrichum coccodes infected tomato fruit assessed as spore germination at 44.8 ul/l incubated for 7 days post-inoculation followed by spore inoculation on medium measured after 24 hr (reference value: 96.5 +/- 2.66%); format: functional
[16] = test system: Colletotrichum coccodes; experiment: Antifungal activity against Colletotrichum coccodes infected tomato fruit assessed as spore production at 44.8 ul/l incubated for 9 days post-inoculation (reference value: 1.6 +/- 0.92 10^5/ml); format: functional

Row | Activity [4] [%] | SMILES | Activity [1] | Activity [2] | Activity [3] [%] | Activity [5] [%] | Activity [6] [cm2] | Activity [7] [%] | Activity [8] [×10⁵ /ml] | Activity [9] [cm2] | Activity [10] [%] | Activity [11] [×10⁵ /ml] | Activity [12] [cm2] | Activity [13] [×10⁵ /ml] | Activity [14] [cm2] | Activity [15] [%] | Activity [16] [×10⁵ /ml]
1 |  | Cl | Active |  |  |  |  |  |  |  |  |  |  |  |  |  | 
2 | 23 | CC/C=C\CC1C(=O)CCC1CC(=O)OC (configuration not stated) [METHYL JASMONATE] | Active | inactive | 20 | 55.2 | 2.79 | 99 | 7.6 | 4.55 | 99.5 | 6.9 | 8.18 | 7.7 | 4.74 | 51.6 | 1
